Among the data in US9187458B2, “Cyanoquinoline derivatives” (Tianjin Hemay Bio-Tech Co., LTD., priority 2010, dated 2015) are IC50 values, retold here.

The test system of the assay is MDA-MB-453 cells. As to the kind of experiment: MDA-MB-453 Cell Growth Inhibition Test (SRB Assay). The assay is classed as cell-based. The following applies: Homo sapiens, 72 h incubation. On the procedure:
MDA-MB-453 Cell Growth Inhibition Test (SRB Assay)
Cell strains: MDA-MB-453 (human breast cancer cell strains);
SRB: 0.4% (w/v) working solution was formulated with 1% glacial acetic acid, reserved at 4° C.; antitumor compounds; DMSO
Culture medium: 90% L15+10% FBS;
1. A plate (10 cm) of cells in logarithmic growth phase normally cultured was collected;
2. The culture solution was sucked out. The plate was washed with 5 mL of PBS 1-2 times;
3. 1.5 mL of 0.25% pancreatin was added to the plate to infiltrate the cells;
4. The pancreatin was sucked out. The culture plate was placed in an incubator. Digestion was carried out for about 3 min at 37° C.;
5. 4 mL of complete culture solution was added to the culture plate to stop the digestion. The cells were carefully scoured with micropipette (1 ml) to give a uniform single cell suspension. The suspension was implanted into a 96-well cell culture plate by 7000 cells/100 μl per well. The culture plate was incubated overnight under 5% CO2 at 37° C. In day 2, 100 μl of culture solution comprising a compound was added in each well, and further incubated for 72 h under 5% CO2 at 37° C.;
6. The culture solution was sucked out. 100 uL of TCA fixed cells which were diluted to 10% were added to each well. The plate was kept in a refrigerator for 1 h at 4° C.
7. TCA stationary liquid was sucked out. […]
13. OD values were determined at […]. […]

As usually defined, the IC50 is the concentration needed to halve the response being measured. `C#Cc1cccc(Nc2c(C#N)cnc3cc(OC4CCOC4)c(NC(=O)/C=C/CN(C)C)cc23)c1` (stereo not shown) [Example 5, (E)-N-(3-CYANO-4-(3-ETHYNYLPHENYLAMINO)-7-(TETRAHYDROFURAN-3-YL-OXY)QUINOLIN-6-YL)-4-(DIMETHYLAMINO)-BUT-2-ENAMIDE]: 505 nM corresponded to half-maximal inhibition (IC50).
